# Laboratory results: US7780978B2, “Oral pharmaceutical compositions and methods of using the same” (Childrens Hospital Los Angeles, priority 2003, dated 2010)
# Tests used:
# [1] = Steady state plasma and tissue levels of 4-HPR in mice fed or gavaged LXS compositions vs capsule contents (HPLC); type: in vivo; conditions: mice, 120, 250 and 560 mg/kg/day
# Description: FIG. 1. Comparison of 4-HPR in LXS matrix vs Capsule Formulation at 120 mg/kg/day. Cohorts of five mice were feed with 120 mg/kg/day of 4-HPR formulated in various LXS compositions, or 4-HPR expressed from capsules, mixed with mouse chow or Slim-Fast®, divided BID, ×4.5 days. Animals were sacrificed 3 hrs after the last dose and 4-HPR levels in plasma and tissues were assayed by HPLC. […] PLASMA: G1 vs capsule, P=0.006; LYM-X 5.59 vs capsule, P=0.06; LIVER: G1 vs capsule, P=0.013; LYM-X 5.59 vs capsule, P=0.045; LUNGS: G1 vs capsule, P=0.028; G2 vs capsule, P=0.05; KIDNEY: G1 vs capsule, P=0.007; LYM-X 5.59 vs capsule, P=0.06; BRAIN: G1 vs capsule, P=0.01; LYM-X 5.58 vs capsule, P=0.02. Statistical analysis by Student's t-test. Columns, in each set of columns, in sequence from left to right, represent LYM-X 5.57, LYM-X 5.58, LYM-X 5.60, LYM-X 5.59, Capsule Lot #R-6124, LYM-X 5.60 G1 (SLIMFAST™), and LYM-X 5.60 G2 (DI Water).
# FIG. 2. Comparison of 4-HPR in LXS™ matrix vs Capsule Formulation at 250 mg/kg/day. […]
# To test this hypothesis, we had various LXS™ compositions of 4-HPR prepared that varied in the LPC:MG:FA ratios of the LXS™ matrix. We then feed mice with equal doses of 4-HPR in the LXS™ compositions, or expressed as a slurry from the current oral 4-HPR capsules. […]
# [2] = cited from earlier work
smiles,measurement,setting,value
"CC1=C(/C=C/C(C)=C/C=C/C(C)=C/C(=O)Nc2ccc(O)cc2)C(C)(C)CCC1 [Fenretinide, all-trans-N-(4-hydroxyphenyl)retinamide]",dose dependence of 4-HPR plasma and tissue levels,[1],dose-dependent
same,solubility in aqueous solution,[2],minimally soluble
